# Test results taken from PubChem BioAssay AID1259408 (Genetic Toxicology Data Bank (GENE-TOX), 2018).
# The source made the active and inactive calls. How the calls were made is not given here.
# Tested on: GENE-TOX genotoxicity assays, various organisms and cells
# Test: GENE-TOX mutagenicity studies
# Settings: for call: Assay Type: In vivo carcinogenicity studies
# [1] = Species/Cell Type: Drosophila melanogaster, Assay Type: Sex-linked recessive lethal gene mutation, Assay Code: SRLT, Evaluation Type: Evaluation A (Pre-1980)
# [2] = Species/Cell Type: Human diploid fibroblasts, Assay Type: Unscheduled DNA synthesis (UDS) in vitro, DNA effects, Assay Code: UDH-, Evaluation Type: Evaluation A (Pre-1980)
# [3] = Species/Cell Type: Syrian hamster embryo (SHE) cells, Assay Type: Cell transformation, clonal assay, Assay Code: CTC+, Evaluation Type: Evaluation A (Pre-1980)
# [4] = Species/Cell Type: Nonhuman, Assay Code: CCG+L, Evaluation Type: Evaluation A (Pre-1980)
# [5] = Species/Cell Type: Salmonella typhimurium (one or more of the five standard strains: TA98, TA100, TA1535, TA1537, and TA1538), Assay Type: Histidine reverse gene mutation, Ames assay, Assay Code: SAL+, Evaluation Type: Evaluation A (Pre-1980)
# [6] = Species/Cell Type: Syrian hamster embryo (SA7/SHE) cells, Assay Type: Cell transformation, viral enhanced, Assay Code: CT7+, Evaluation Type: Evaluation A (Pre-1980)
# [7] = Species/Cell Type: Escherichia coli polA (W3119 vs P3478), Assay Type: Rec-assay, DNA effects (bacterial DNA repair), Assay Code: RE1-, Evaluation Type: Evaluation A (Pre-1980)
# [8] = Species/Cell Type: Saccharomyces cerevisiae, Assay Type: Mitotic recombination or gene conversion, Assay Code: YEH-, Evaluation Type: Evaluation A (Pre-1980)
# [9] = Species/Cell Type: Salmonella typhimurium (one or more of the five standard strains: TA98, TA100, TA1535, TA1537, and TA1538), Assay Type: Histidine reverse gene mutation, Ames assay, Assay Code: SAL-, Evaluation Type: Evaluation A (Pre-1980)
# [10] = Species/Cell Type: Drosophila melanogaster, Assay Type: Sex-linked recessive lethal gene mutation, Assay Code: SRL+, Evaluation Type: Evaluation A (Pre-1980)
# [11] = Species/Cell Type: Saccharomyces cerevisiae, Assay Type: Mitotic recombination or gene conversion, Assay Code: YEC-, Evaluation Type: Evaluation A (Pre-1980)
# [12] = Species/Cell Type: Allium cepa, Assay Type: Chromosome aberrations, Assay Code: ALC+, Evaluation Type: Evaluation A (Pre-1980)
# [13] = Species/Cell Type: Nonhuman, Assay Code: CCG+, Evaluation Type: Evaluation A (Pre-1980)
# [14] = Species/Cell Type: Salmonella typhimurium, Assay Type: Forward and reverse gene mutation, host-mediated assay, Assay Code: HMA+, Evaluation Type: Evaluation A (Pre-1980)
# [15] = Species/Cell Type: Escherichia coli polA (W3119 vs P3478), Assay Type: Rec-assay, DNA effects (bacterial DNA repair), Assay Code: RE1+, Evaluation Type: Evaluation A (Pre-1980)
compound,measurement,setting,value
OC1c2ccccc2-c2cc3ccccc3cc2C1O (stereo unspecified),mutagenic call,"Species/Cell Type: Chinese hamster lung (V79) cells, Assay Type: Forward gene mutation at the HPRT or ouabain locus, Assay Code: V79-*, Activation: With metabolic activation, Evaluation Type: Evaluation A (Pre-1980)",inactive; negative
same,mutagenic call,"Species/Cell Type: Chinese hamster lung (V79) cells, Assay Type: Forward gene mutation at the HPRT or ouabain locus, Assay Code: V79-, Evaluation Type: Evaluation A (Pre-1980)",inactive; negative
same,mutagenic call,[1],no conclusion
same,mutagenic call,[2],inactive; negative
same,mutagenic call,"Species/Cell Type: Mouse prostate cells, Assay Type: Cell transformation, Assay Code: CTM-, Evaluation Type: Evaluation A (Pre-1980)",inactive; negative
same,mutagenic call,[3],active; positive
Cc1c2ccccc2c(CO)c2ccc3c(c12)C=C[C@@H](O)[C@@H]3O,call,[4],active; positive
O=Nc1ccc(NNc2ccccc2)cc1,mutagenic call,[5],active; positive
COCCl,call,[4],active; positive
same,mutagenic call,[6],active; positive
O=c1[nH]cc(Cl)c(=O)[nH]1,mutagenic call,"Species/Cell Type: Mouse, Sex: Male, Assay Type: Specific locus test, gene mutation, Assay Code: SLTT, Evaluation Type: Evaluation A (Pre-1980)",no conclusion
CCC(=O)Nc1ccc(Cl)c(Cl)c1,mutagenic call,"Species/Cell Type: Aspergillus nidulans, Assay Type: Forward gene mutation, Assay Code: ASF-, Evaluation Type: Evaluation A (Pre-1980)",inactive; negative
same,mutagenic call,"Species/Cell Type: Bacillus subtilis (H17 vs M45), Assay Type: Rec-assay, spot test, DNA effects (bacterial DNA repair), Assay Code: REW+, Evaluation Type: Evaluation A (Pre-1980)",active; positive
same,mutagenic call,[7],inactive; negative
same,mutagenic call,[2],inactive; negative
same,mutagenic call,[8],inactive; negative
same,mutagenic call,[9],inactive; negative
CS(=O)(=O)OC[C@@H](O)[C@@H](O)[C@H](O)[C@H](O)COS(C)(=O)=O,mutagenic call,[10],active; positive
COc1cc(/C=C/C(=O)CC(=O)/C=C/c2ccc(O)c(OC)c2)ccc1O,mutagenic call,[11],inactive; negative
CC(=O)Nc1nc(-c2cc([N+](=O)[O-])cs2)cs1,mutagenic call,[5],active; positive
COc1ccc(O)cc1,mutagenic call,[12],active; positive
CC(C)CBr,mutagenic call,"Species/Cell Type: Escherichia coli polA (W3119 vs P3478), Assay Type: Rec-assay, DNA effects (bacterial DNA repair), Assay Code: RE1T, Evaluation Type: Evaluation A (Pre-1980)",no conclusion
COc1ccc(C[C@H](N)C(=O)N[C@H]2[C@@H](O)[C@H](n3cnc4c(N(C)C)ncnc43)O[C@@H]2CO)cc1,mutagenic call,"Species/Cell Type: Escherichia coli polA (W3110 vs P3478), Assay Type: Rec-assay, DNA effects (bacterial DNA repair), Assay Code: RE2+, Evaluation Type: Evaluation A (Pre-1980)",active; positive
same,mutagenic call,[7],inactive; negative
same,mutagenic call,"Species/Cell Type: Glycine max (soybean), Assay Type: Gene mutation, Assay Code: GLMT, Evaluation Type: Evaluation A (Pre-1980)",no conclusion
same,mutagenic call,"Species/Cell Type: Rodents, Sex: Male, Assay Type: Dominant lethal test, Assay Code: DLT-, Evaluation Type: Evaluation A (Pre-1980)",inactive; negative
C/C=C1\C[C@H]2[C@@H](OC)Nc3cc(O)c(OC)cc3C(=O)N2C1,mutagenic call,"Species/Cell Type: Mammalian polychromatic erythrocytes, Assay Type: Micronucleus test, chromosome aberrations, Assay Code: MNTT, Evaluation Type: Evaluation B (Post-1980)",no conclusion
CNC(=O)Nc1nc(-c2ccc(OC)cc2)cs1,mutagenic call,"Species/Cell Type: Salmonella typhimurium, Assay Type: Forward and reverse gene mutation, host-mediated assay, Assay Code: HMAT, Evaluation Type: Evaluation A (Pre-1980)",no conclusion
CN[C@H]1[C@@H](O[C@@H]2C3CC#CC4O[C@@]4(C4COC(=O)O4)C#CC3=C[C@H]2OC(=O)c2c(O)ccc3c(C)cc(OC)cc23)O[C@H](C)[C@H](O)[C@@H]1O (stereo partly specified),mutagenic call,"Species/Cell Type: Escherichia coli WP2, Assay Type: Tryptophan reverse gene mutation, Assay Code: WP2+D, Dose Response: With dose response, Evaluation Type: Evaluation A (Pre-1980)",active; positive
same,mutagenic call,"Species/Cell Type: Escherichia coli WP2 UVRA, Assay Type: Tryptophan reverse gene mutation, Assay Code: WPU+D, Dose Response: With dose response, Evaluation Type: Evaluation A (Pre-1980)",active; positive
same,mutagenic call,"Species/Cell Type: Human diploid fibroblasts, Assay Type: Unscheduled DNA synthesis (UDS) in vitro, DNA effects, Assay Code: UDH+D, Dose Response: With dose response, Evaluation Type: Evaluation A (Pre-1980)",active; positive
same,mutagenic call,"Species/Cell Type: Nonhuman, Assay Type: Sister-chromatid exchange (SCE) in vitro, Assay Code: SC2+D, Dose Response: With dose response, Evaluation Type: Evaluation B (Post-1980)",active; positive
O=c1[nH]c(=O)n([C@H]2C[C@H](O)[C@@H](CO)O2)cc1/C=C/I,mutagenic call,"Species/Cell Type: Human, Assay Type: Sister-chromatid exchange (SCE) in vitro, Assay Code: SC1+D, Dose Response: With dose response, Evaluation Type: Evaluation B (Post-1980)",active; positive
O=C1c2ccccc2NC(c2ccc([N+](=O)[O-])o2)N1O (stereo unspecified),mutagenic call,"Species/Cell Type: Mammalian polychromatic erythrocytes, Assay Type: Micronucleus test, chromosome aberrations, Assay Code: MNT-, Evaluation Type: Evaluation B (Post-1980)",inactive; negative
CCNC(=O)/C=C(C)/C=C/C=C(C)/C=C/c1c(C)cc(OC)c(C)c1C,mutagenic call,"Species/Cell Type: Mouse (C3H/10T1/2) cells, Assay Type: Cell transformation, Assay Code: CTH-, Evaluation Type: Evaluation A (Pre-1980)",inactive; negative
ClCCN(CCCl)c1ccc2ccccc2c1,mutagenic call,[10],active; positive
same,call,[4],active; positive
same,mutagenic call,[5],active; positive
same,mutagenic call,[6],active; positive
CC(CN(C)C)Nc1c2ccccc2nc2cccc([N+](=O)[O-])c12 (stereo unspecified),mutagenic call,"Species/Cell Type: Human lymphocytes, Assay Type: Sister-chromatid exchange (SCE) in vitro, Assay Code: SCL+, Evaluation Type: Evaluation B (Post-1980)",active; positive
same,mutagenic call,"Species/Cell Type: Human, Assay Type: Sister-chromatid exchange (SCE) in vitro, Assay Code: SC1+, Evaluation Type: Evaluation B (Post-1980)",active; positive
CSc1ccc([C@H](O)[C@H](CO)NC(=O)C(Cl)Cl)cc1,mutagenic call,"Species/Cell Type: Salmonella typhimurium (one or more of the five standard strains: TA98, TA100, TA1535, TA1537, and TA1538), Assay Type: Histidine reverse gene mutation, Ames assay, Assay Code: SALT, Evaluation Type: Evaluation A (Pre-1980)",no conclusion
N[C@@H]1CONC1=O,mutagenic call,[7],inactive; negative
CCCCNC(=O)n1c(NC(=O)OC)nc2ccccc21,mutagenic call,[12],active; positive
same,mutagenic call,"Species/Cell Type: Aspergillus nidulans, Assay Type: Aneuploidy, chromosome aberrations, Assay Code: ASN+, Evaluation Type: Evaluation A (Pre-1980)",active; positive
same,mutagenic call,"Species/Cell Type: Aspergillus nidulans, Assay Type: Mitotic recombination, Assay Code: ASG-, Evaluation Type: Evaluation A (Pre-1980)",inactive; negative
same,mutagenic call,"Species/Cell Type: Escherichia coli WP2, Assay Type: Tryptophan reverse gene mutation, Assay Code: WP2T, Evaluation Type: Evaluation A (Pre-1980)",no conclusion
same,mutagenic call,"Species/Cell Type: Escherichia coli WP2 UVRA, Assay Type: Tryptophan reverse gene mutation, Assay Code: WPU+, Evaluation Type: Evaluation A (Pre-1980)",active; positive
same,mutagenic call,[11],inactive; negative
same,mutagenic call,"Species/Cell Type: Salmonella typhimurium, Assay Type: Forward and reverse gene mutation, host-mediated assay, Assay Code: HMA-, Evaluation Type: Evaluation A (Pre-1980)",inactive; negative
O=S(=O)(O)c1cc(O)c2c(O)c(N=Nc3ccccc3)c(S(=O)(=O)O)cc2c1,mutagenic call,"Species/Cell Type: Bacillus subtilis (H17 vs M45), Assay Type: Rec-assay, spot test, DNA effects (bacterial DNA repair), Assay Code: REWT, Evaluation Type: Evaluation A (Pre-1980)",no conclusion
COc1ccc2c(c1)CC[C@@H]1[C@@H]2CC[C@]2(C)[C@@H](O)[C@H](O)C[C@@H]12,mutagenic call,"Species/Cell Type: Rat, Sex: Male, Assay Type: Sperm morphology, Assay Code: SPA+, Evaluation Type: Evaluation A (Pre-1980)",active; positive
C/[N+]([O-])=N/CO[C@@H]1O[C@H](CO)[C@@H](O)[C@H](O)[C@H]1O,mutagenic call,[1],no conclusion
same,call,[13],active; positive
same,mutagenic call,[9],inactive; negative
same,mutagenic call,[14],active; positive
O=Nc1ccc2c(c1)Cc1ccccc1-2,mutagenic call,[15],active; positive
same,mutagenic call,[5],active; positive
CN(C)c1ccc(Cc2ccc(N(C)C)cc2)cc1,mutagenic call,[15],active; positive
same,mutagenic call,"Species/Cell Type: Fischer rat embryo (RLV/1706) cells, Assay Type: Cell transformation, viral enhanced, Assay Code: CTR+, Evaluation Type: Evaluation A (Pre-1980)",active; positive
same,mutagenic call,[2],inactive; negative
same,call,[13],active; positive
same,mutagenic call,"Species/Cell Type: Nonhuman, Assay Type: Sister-chromatid exchange (SCE) in vitro, Assay Code: SC2+, Evaluation Type: Evaluation B (Post-1980)",active; positive
same,mutagenic call,[8],inactive; negative
same,mutagenic call,[14],active; positive
same,mutagenic call,[3],active; positive
